Results: ChEMBL document CHEMBL4715697, “Synthesis and biological activity of benzamide DNA minor groove binders” (2016)

What was measured:
Assay type in all cases: functional
BT-549 [1] = experiment: Growth inhibition of human BT-549 cells incubated for 48 hrs by sulforhodamine B assay
A498 [2] = experiment: Growth inhibition of human A498 cells assessed as cell growth at 1 uM incubated for 48 hrs by sulforhodamine B assay relative to control; settings: read-out: Activity
IGROV-1 [3] = experiment: Growth inhibition of human IGROV-1 cells assessed as cell growth at 0.1 uM incubated for 48 hrs by sulforhodamine B assay relative to control; settings: read-out: Activity
SW-620 [4] = experiment: Growth inhibition of human SW-620 cells assessed as cell growth at 0.1 uM incubated for 48 hrs by sulforhodamine B assay relative to control; settings: read-out: Activity
U-251 = experiment: Growth inhibition of human U-251 cells assessed as cell growth at 0.01 uM incubated for 48 hrs by sulforhodamine B assay relative to control; settings: read-out: Activity
UO-31 = experiment: Growth inhibition of human UO-31 cells assessed as cell growth at 1 uM incubated for 48 hrs by sulforhodamine B assay relative to control; settings: read-out: Activity
NCI-H322M = experiment: Growth inhibition of human NCI-H322M cells assessed as cell growth at 0.1 uM incubated for 48 hrs by sulforhodamine B assay relative to control; settings: read-out: Activity
NCI-H226 [5] = experiment: Growth inhibition of human NCI-H226 cells assessed as cell growth at 0.01 uM incubated for 48 hrs by sulforhodamine B assay relative to control; settings: read-out: Activity
TK-10 [6] = experiment: Growth inhibition of human TK-10 cells assessed as cell growth at 100 uM incubated for 48 hrs by sulforhodamine B assay relative to control; settings: read-out: Activity
HOP-62 = experiment: Growth inhibition of human HOP-62 cells assessed as cell growth at 0.1 uM incubated for 48 hrs by sulforhodamine B assay relative to control; settings: read-out: Activity
HL-60(TB) [7] = experiment: Growth inhibition of human HL-60(TB) cells incubated for 48 hrs by sulforhodamine B assay
RPMI-8226 = experiment: Growth inhibition of human RPMI-8226 cells assessed as cell growth at 0.01 uM incubated for 48 hrs by sulforhodamine B assay relative to control; settings: read-out: Activity
IGROV-1 [8] = experiment: Growth inhibition of human IGROV-1 cells assessed as cell growth at 100 uM incubated for 48 hrs by sulforhodamine B assay relative to control; settings: read-out: Activity
BT-549 [9] = experiment: Growth inhibition of human BT-549 cells assessed as cell growth at 0.1 uM incubated for 48 hrs by sulforhodamine B assay relative to control; settings: read-out: Activity
SK-MEL-5 = experiment: Growth inhibition of human SK-MEL-5 cells assessed as cell growth at 0.1 uM incubated for 48 hrs by sulforhodamine B assay relative to control; settings: read-out: Activity
NCI-H522 = experiment: Growth inhibition of human NCI-H522 cells incubated for 48 hrs by sulforhodamine B assay
786-0 = experiment: Growth inhibition of human 786-0 cells assessed as cell growth at 0.1 uM incubated for 48 hrs by sulforhodamine B assay relative to control; settings: read-out: Activity
SW-620 [10] = experiment: Growth inhibition of human SW-620 cells assessed as cell growth at 100 uM incubated for 48 hrs by sulforhodamine B assay relative to control; settings: read-out: Activity
SK-OV-3 = experiment: Growth inhibition of human SK-OV-3 cells assessed as cell growth at 1 uM incubated for 48 hrs by sulforhodamine B assay relative to control; settings: read-out: Activity
HCC 2998 = experiment: Growth inhibition of human HCC 2998 cells assessed as cell growth at 1 uM incubated for 48 hrs by sulforhodamine B assay relative to control; settings: read-out: Activity
CCRF-CEM = experiment: Growth inhibition of human CCRF-CEM cells assessed as cell growth at 0.01 uM incubated for 48 hrs by sulforhodamine B assay relative to control; settings: read-out: Activity
A498 [11] = experiment: Growth inhibition of human A498 cells assessed as cell growth at 0.01 uM incubated for 48 hrs by sulforhodamine B assay relative to control; settings: read-out: Activity
SR = experiment: Growth inhibition of human SR cells assessed as cell growth at 0.1 uM incubated for 48 hrs by sulforhodamine B assay relative to control; settings: read-out: Activity
MDA-MB-231 = experiment: Growth inhibition of human MDA-MB-231 cells incubated for 48 hrs by sulforhodamine B assay
OVCAR-4 [12] = experiment: Growth inhibition of human OVCAR-4 cells incubated for 48 hrs by sulforhodamine B assay
SF-539 = experiment: Growth inhibition of human SF-539 cells assessed as cell growth at 1 uM incubated for 48 hrs by sulforhodamine B assay relative to control; settings: read-out: Activity
MCF7 = experiment: Growth inhibition of human MCF7 cells incubated for 48 hrs by sulforhodamine B assay
HL-60(TB) [13] = experiment: Growth inhibition of human HL-60(TB) cells assessed as cell growth at 0.1 uM incubated for 48 hrs by sulforhodamine B assay relative to control; settings: read-out: Activity
UACC-62 = experiment: Growth inhibition of human UACC-62 cells incubated for 48 hrs by sulforhodamine B assay
KM12 = experiment: Growth inhibition of human KM12 cells assessed as cell growth at 0.01 uM incubated for 48 hrs by sulforhodamine B assay relative to control; settings: read-out: Activity
HCT-116 = experiment: Growth inhibition of human HCT-116 cells assessed as cell growth at 0.01 uM incubated for 48 hrs by sulforhodamine B assay relative to control; settings: read-out: Activity
TK-10 [14] = experiment: Growth inhibition of human TK-10 cells assessed as cell growth at 0.1 uM incubated for 48 hrs by sulforhodamine B assay relative to control; settings: read-out: Activity
A549 = experiment: Growth inhibition of human A549/ATCC cells assessed as cell growth at 0.01 uM incubated for 48 hrs by sulforhodamine B assay relative to control; settings: read-out: Activity
OVCAR-4 [15] = experiment: Growth inhibition of human OVCAR-4 cells assessed as cell growth at 0.01 uM incubated for 48 hrs by sulforhodamine B assay relative to control; settings: read-out: Activity
NCI-H226 [16] = experiment: Growth inhibition of human NCI-H226 cells assessed as cell growth at 1 uM incubated for 48 hrs by sulforhodamine B assay relative to control; settings: read-out: Activity
[17] = read-out: LC50 (the source's name)
[18] = read-out: pLC50 (the source's name) (converted)

CC(=O)Nc1cc(CCl)cc(NC(=O)c2ccc(C(=O)Nc3cccc(NC(=O)CCCN(C)C)c3)cc2)c1
GI50 (BT-549 [1]; read-out: GI50): > 100 µM | CC50 (BT-549 [1]; [17]): > 100 µM | TGI (BT-549 [1]; read-out: TGI): > 100 µM | GI50 (BT-549 [1]; read-out: pGI50 (converted)): > 100 µM | CC50 (BT-549 [1]; [18]): > 100 µM | TGI (BT-549 [1]; read-out: pTGI): > 100 µM | growth at 1 µM (A498 [2]): 73% | growth at 0.1 µM (IGROV-1 [3]): 113% | growth at 0.1 µM (SW-620 [4]): 107% | growth at 0.01 µM (U-251): 98% | growth at 1 µM (UO-31): 97% | growth at 0.1 µM (NCI-H322M): 103% | growth at 0.01 µM (NCI-H226 [5]): 95% | growth at 100 µM (TK-10 [6]): 129% | growth at 0.1 µM (HOP-62): 104% | GI50 (HL-60(TB) [7]; read-out: GI50): > 100 µM | LC50 (HL-60(TB) [7]; read-out: LC50): > 100 µM | TGI (HL-60(TB) [7]; read-out: TGI): > 100 µM | GI50 (HL-60(TB) [7]; read-out: pGI50 (converted)): > 100 µM | LC50 (HL-60(TB) [7]; read-out: pLC50 (converted)): > 100 µM | TGI (HL-60(TB) [7]; read-out: pTGI): > 100 µM | growth at 0.01 µM (RPMI-8226): 110% | growth at 100 µM (IGROV-1 [8]): 100% | growth at 0.1 µM (BT-549 [9]): 103% | growth at 0.1 µM (SK-MEL-5): 92% | GI50 (NCI-H522; read-out: GI50): > 100 µM | CC50 (NCI-H522; [17]): > 100 µM | TGI (NCI-H522; read-out: TGI): > 100 µM | GI50 (NCI-H522; read-out: pGI50 (converted)): > 100 µM | CC50 (NCI-H522; [18]): > 100 µM | TGI (NCI-H522; read-out: pTGI): > 100 µM | growth at 0.1 µM (786-0): 104% | growth at 100 µM (SW-620 [10]): 92% | growth at 1 µM (SK-OV-3): 106% | growth at 1 µM (HCC 2998): 96% | growth at 0.01 µM (CCRF-CEM): 107% | growth at 0.01 µM (A498 [11]): 67% | growth at 0.1 µM (SR): 107% | GI50 (MDA-MB-231; read-out: GI50): > 100 µM | CC50 (MDA-MB-231; [17]): > 100 µM | TGI (MDA-MB-231; read-out: TGI): > 100 µM | GI50 (MDA-MB-231; read-out: pGI50 (converted)): > 100 µM | CC50 (MDA-MB-231; [18]): > 100 µM | TGI (MDA-MB-231; read-out: pTGI): > 100 µM | GI50 (OVCAR-4 [12]; read-out: GI50): > 100 µM | LC50 (concentration killing 50% of cells) (OVCAR-4 [12]; read-out: LC50): > 100 µM | TGI (OVCAR-4 [12]; read-out: TGI): > 100 µM | GI50 (OVCAR-4 [12]; read-out: pGI50 (converted)): > 100 µM | LC50 (concentration killing 50% of cells) (OVCAR-4 [12]; read-out: pLC50 (converted)): > 100 µM | TGI (OVCAR-4 [12]; read-out: pTGI): > 100 µM | growth at 1 µM (SF-539): 104% | GI50 (MCF7; read-out: GI50): 30.1 µM | CC50 (MCF7; [17]): > 100 µM | TGI (MCF7; read-out: TGI): > 100 µM | GI50 (MCF7; read-out: pGI50 (converted)): 30.2 µM | CC50 (MCF7; [18]): > 100 µM | TGI (MCF7; read-out: pTGI): > 100 µM | growth at 0.1 µM (HL-60(TB) [13]): 93% | GI50 (UACC-62; read-out: GI50): > 100 µM | CC50 (UACC-62; [17]): > 100 µM | TGI (UACC-62; read-out: TGI): > 100 µM | GI50 (UACC-62; read-out: pGI50 (converted)): > 100 µM | CC50 (UACC-62; [18]): > 100 µM | TGI (UACC-62; read-out: pTGI): > 100 µM | growth at 0.01 µM (KM12): 105% | growth at 0.01 µM (HCT-116): 109% | growth at 0.1 µM (TK-10 [14]): 106% | growth at 0.01 µM (A549): 104% | growth at 0.01 µM (OVCAR-4 [15]): 99% | growth at 1 µM (NCI-H226 [16]): 91%
